# How the values were obtained:
# Assay in all cases: Post-emergence glasshouse spray test, visual percentage phytotoxicity after 13 days
# Assay type in all cases: in vivo
# [1] = system: Abutilon threophrasti (ABUTH); conditions: B1
# Procedure, shortened: (§1)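 Plants grown 8 days in sterilised soil (24/19 °C, 16 h light) were sprayed at 500 l/Ha with compound formulated in acetone/IF50 emulsifier-solvent as a 50 g/l solution, diluted in 0.2% Genapol XO80 to final dose. Phytotoxicity was scored visually versus untreated controls after 13 days (24/18 °C, 15 h light, 50% humidity).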
# [2] = system: Alopecurus myosuroides (ALOMY); conditions: for ALOMY percentage phytotoxicity: B1; for Observed phytotoxicity ALOMY: B2.2.5
# Procedure, shortened: as §1
# [3] = system: Amaranthus retroflexus (AMARE); conditions: for AMARE percentage phytotoxicity: B1; for Observed phytotoxicity AMARE: B2.2.6
# Procedure, shortened: as §1
# [4] = system: Chenopodium album (CHEAL); conditions: B1
# Procedure, shortened: as §1
# [5] = system: Digitaria sanguinalis (DIGSA); conditions: for DIGSA percentage phytotoxicity: B1; for Observed phytotoxicity DIGSA: B2.2.3
# Procedure, shortened: as §1
# [6] = system: Echinochloa crus-galli (ECHCG); conditions: for ECHCG percentage phytotoxicity: B1; for Observed phytotoxicity ECHCG: B2.2.2
# Procedure, shortened: as §1
# [7] = system: Ipomoea hederacea (IPOHE); conditions: B1
# Procedure, shortened: as §1
# Lolium perenne (LOLPE) = conditions: for LOLPE percentage phytotoxicity: B1; for Observed phytotoxicity LOLPE: B2.2.4
# Procedure, shortened: as §1
# Setaria faberi (SETFA) = conditions: for SETFA percentage phytotoxicity: B1; for Observed phytotoxicity SETFA: B2.2.1
# Procedure, shortened: as §1
# Stellaria media (STEME) = conditions: B1
# Procedure, shortened: as §1
compound,measurement,setting,value
CC1(C)CN(Cc2ccccc2NS(=O)(=O)C(F)(F)F)C1=O [B-IV],ABUTH percentage phytotoxicity,[1]; 31.25 g/ha post-emergence,80%
same,ABUTH percentage phytotoxicity,[1]; 62.5 g/ha post-emergence,80%
same,ABUTH percentage phytotoxicity,[1]; 125 g/ha post-emergence,90%
same,ABUTH percentage phytotoxicity,[1]; 250 g/ha post-emergence,98%
same,ABUTH percentage phytotoxicity,[1]; 500 g/ha post-emergence,85%
same,ABUTH percentage phytotoxicity,[1]; 1000 g/ha post-emergence,85%
same,ALOMY percentage phytotoxicity,[2]; 31.25 g/ha post-emergence,4%
same,ALOMY percentage phytotoxicity,[2]; 62.5 g/ha post-emergence,2%
same,ALOMY percentage phytotoxicity,[2]; 125 g/ha post-emergence,1%
same,ALOMY percentage phytotoxicity,[2]; 250 g/ha post-emergence,3%
same,ALOMY percentage phytotoxicity,[2]; 500 g/ha post-emergence,8%
same,ALOMY percentage phytotoxicity,[2]; 1000 g/ha post-emergence,8%
same,Observed phytotoxicity ALOMY,[2]; 500 g/ha post-emergence,8%
same,Observed phytotoxicity ALOMY,[2]; 1000 g/ha post-emergence,8%
same,AMARE percentage phytotoxicity,[3]; 31.25 g/ha post-emergence,0%
same,AMARE percentage phytotoxicity,[3]; 62.5 g/ha post-emergence,15%
same,AMARE percentage phytotoxicity,[3]; 125 g/ha post-emergence,43%
same,AMARE percentage phytotoxicity,[3]; 250 g/ha post-emergence,43%
same,AMARE percentage phytotoxicity,[3]; 500 g/ha post-emergence,75%
same,AMARE percentage phytotoxicity,[3]; 1000 g/ha post-emergence,85%
same,Observed phytotoxicity AMARE,[3]; 31.25 g/ha post-emergence,0%
same,Observed phytotoxicity AMARE,[3]; 62.5 g/ha post-emergence,15%
same,CHEAL percentage phytotoxicity,[4]; 31.25 g/ha post-emergence,0%
same,CHEAL percentage phytotoxicity,[4]; 62.5 g/ha post-emergence,8%
same,CHEAL percentage phytotoxicity,[4]; 125 g/ha post-emergence,15%
same,CHEAL percentage phytotoxicity,[4]; 250 g/ha post-emergence,40%
same,CHEAL percentage phytotoxicity,[4]; 500 g/ha post-emergence,25%
same,CHEAL percentage phytotoxicity,[4]; 1000 g/ha post-emergence,75%
same,DIGSA percentage phytotoxicity,[5]; 31.25 g/ha post-emergence,0%
same,DIGSA percentage phytotoxicity,[5]; 62.5 g/ha post-emergence,3%
same,DIGSA percentage phytotoxicity,[5]; 125 g/ha post-emergence,8%
same,DIGSA percentage phytotoxicity,[5]; 250 g/ha post-emergence,10%
same,DIGSA percentage phytotoxicity,[5]; 500 g/ha post-emergence,15%
same,DIGSA percentage phytotoxicity,[5]; 1000 g/ha post-emergence,55%
same,Observed phytotoxicity DIGSA,[5]; 250 g/ha post-emergence,10%
same,Observed phytotoxicity DIGSA,[5]; 500 g/ha post-emergence,15%
same,Observed phytotoxicity DIGSA,[5]; 1000 g/ha post-emergence,55%
same,ECHCG percentage phytotoxicity,[6]; 31.25 g/ha post-emergence,1%
same,ECHCG percentage phytotoxicity,[6]; 62.5 g/ha post-emergence,13%
same,ECHCG percentage phytotoxicity,[6]; 125 g/ha post-emergence,38%
same,ECHCG percentage phytotoxicity,[6]; 250 g/ha post-emergence,60%
same,ECHCG percentage phytotoxicity,[6]; 500 g/ha post-emergence,78%
same,ECHCG percentage phytotoxicity,[6]; 1000 g/ha post-emergence,90%
same,Observed phytotoxicity ECHCG,[6]; 125 g/ha post-emergence,38%
same,Observed phytotoxicity ECHCG,[6]; 250 g/ha post-emergence,60%
same,Observed phytotoxicity ECHCG,[6]; 500 g/ha post-emergence,78%
same,IPOHE percentage phytotoxicity,[7]; 31.25 g/ha post-emergence,55%
same,IPOHE percentage phytotoxicity,[7]; 62.5 g/ha post-emergence,80%
same,IPOHE percentage phytotoxicity,[7]; 125 g/ha post-emergence,75%
same,IPOHE percentage phytotoxicity,[7]; 250 g/ha post-emergence,83%
same,IPOHE percentage phytotoxicity,[7]; 500 g/ha post-emergence,83%
same,IPOHE percentage phytotoxicity,[7]; 1000 g/ha post-emergence,94%
same,LOLPE percentage phytotoxicity,Lolium perenne (LOLPE); 31.25 g/ha post-emergence,0%
same,LOLPE percentage phytotoxicity,Lolium perenne (LOLPE); 62.5 g/ha post-emergence,0%
same,LOLPE percentage phytotoxicity,Lolium perenne (LOLPE); 125 g/ha post-emergence,0%
same,LOLPE percentage phytotoxicity,Lolium perenne (LOLPE); 250 g/ha post-emergence,8%
same,LOLPE percentage phytotoxicity,Lolium perenne (LOLPE); 500 g/ha post-emergence,38%
same,LOLPE percentage phytotoxicity,Lolium perenne (LOLPE); 1000 g/ha post-emergence,65%
same,Observed phytotoxicity LOLPE,Lolium perenne (LOLPE); 62.5 g/ha post-emergence,0%
same,Observed phytotoxicity LOLPE,Lolium perenne (LOLPE); 125 g/ha post-emergence,0%
same,Observed phytotoxicity LOLPE,Lolium perenne (LOLPE); 250 g/ha post-emergence,8%
same,Observed phytotoxicity LOLPE,Lolium perenne (LOLPE); 500 g/ha post-emergence,38%
same,Observed phytotoxicity LOLPE,Lolium perenne (LOLPE); 1000 g/ha post-emergence,65%
same,SETFA percentage phytotoxicity,Setaria faberi (SETFA); 31.25 g/ha post-emergence,2%
same,SETFA percentage phytotoxicity,Setaria faberi (SETFA); 62.5 g/ha post-emergence,0%
same,SETFA percentage phytotoxicity,Setaria faberi (SETFA); 125 g/ha post-emergence,10%
same,SETFA percentage phytotoxicity,Setaria faberi (SETFA); 250 g/ha post-emergence,8%
same,SETFA percentage phytotoxicity,Setaria faberi (SETFA); 500 g/ha post-emergence,33%
same,SETFA percentage phytotoxicity,Setaria faberi (SETFA); 1000 g/ha post-emergence,63%
same,Observed phytotoxicity SETFA,Setaria faberi (SETFA); 125 g/ha post-emergence,10%
same,Observed phytotoxicity SETFA,Setaria faberi (SETFA); 250 g/ha post-emergence,8%
same,Observed phytotoxicity SETFA,Setaria faberi (SETFA); 500 g/ha post-emergence,33%
same,Observed phytotoxicity SETFA,Setaria faberi (SETFA); 1000 g/ha post-emergence,63%
same,STEME percentage phytotoxicity,Stellaria media (STEME); 31.25 g/ha post-emergence,85%
same,STEME percentage phytotoxicity,Stellaria media (STEME); 62.5 g/ha post-emergence,85%
same,STEME percentage phytotoxicity,Stellaria media (STEME); 125 g/ha post-emergence,91%
same,STEME percentage phytotoxicity,Stellaria media (STEME); 250 g/ha post-emergence,93%
same,STEME percentage phytotoxicity,Stellaria media (STEME); 500 g/ha post-emergence,90%
same,STEME percentage phytotoxicity,Stellaria media (STEME); 1000 g/ha post-emergence,93%

# Reference: US20230389548A1, “MIXTURES OF PYRIMIDINES AS HERBICIDAL COMPOSITIONS” (SYNGENTA CROP PROTECTION AG, priority 2020, published 2023)
